According to patent US5053415A, “Pyridine derivatives” (Imperial Chemical Industries PLC, priority 1988, dated 1991):

Experiments:
thromboxane receptor = biological target: T1, thromboxane receptor (Homo sapiens, UniProt P21731); assay: test (b): blood platelet aggregation test, U46619-stimulated aggregation of human citrated platelet-rich plasma; type: cell-based; conditions: averaged over several concentrations
T1 construct: human, citrated, platelet-rich plasma; endogenous in cells; host or cells: human platelets in citrated platelet-rich plasma
T1 sequence (P21731 1-343): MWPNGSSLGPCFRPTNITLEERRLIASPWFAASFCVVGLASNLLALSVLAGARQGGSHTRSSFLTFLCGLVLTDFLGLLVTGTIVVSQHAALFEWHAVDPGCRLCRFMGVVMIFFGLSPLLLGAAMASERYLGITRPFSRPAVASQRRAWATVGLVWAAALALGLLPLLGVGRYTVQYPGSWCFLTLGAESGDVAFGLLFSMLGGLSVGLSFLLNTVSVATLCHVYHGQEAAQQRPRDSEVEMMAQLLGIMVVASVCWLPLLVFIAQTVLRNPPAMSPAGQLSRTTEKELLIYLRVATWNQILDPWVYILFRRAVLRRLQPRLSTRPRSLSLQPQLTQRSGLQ
Excerpt: (b) a blood platelet aggregation test based on that described by Born (Nature, 1962, 194, 927-929) and involving:
(i) aggregating human, citrated, platelet-rich plasma by addition of the TXA2 mimetic agent U46619 so that a dose-response curve is generated;
(ii) generating a dose-response curve for U46619 stimulated platlet aggregation in the presence of increasing amounts of test compound (generally in the range 10^-5 M to 10^-10 M); and
(iii) calculating a KB value indicating potency of TXA2 antagonism for the test compound, averaged over several concentrations, from the calculated 50% response value for U46619 aggregation in the presence and absence of test compound; or […]

TXA2 synthase = biological target: T2, TXA2 synthase (Homo sapiens, UniProt P24557); assay: test (e): human platelet microsomal TXA2 synthase inhibition (conversion of arachidonic acid to TXB2); type: biochemical
T2 construct: human platelet microsomal TXA2 synthase preparation; from tissue; host or cells: human platelet microsomes
T2 sequence (P24557 1-533): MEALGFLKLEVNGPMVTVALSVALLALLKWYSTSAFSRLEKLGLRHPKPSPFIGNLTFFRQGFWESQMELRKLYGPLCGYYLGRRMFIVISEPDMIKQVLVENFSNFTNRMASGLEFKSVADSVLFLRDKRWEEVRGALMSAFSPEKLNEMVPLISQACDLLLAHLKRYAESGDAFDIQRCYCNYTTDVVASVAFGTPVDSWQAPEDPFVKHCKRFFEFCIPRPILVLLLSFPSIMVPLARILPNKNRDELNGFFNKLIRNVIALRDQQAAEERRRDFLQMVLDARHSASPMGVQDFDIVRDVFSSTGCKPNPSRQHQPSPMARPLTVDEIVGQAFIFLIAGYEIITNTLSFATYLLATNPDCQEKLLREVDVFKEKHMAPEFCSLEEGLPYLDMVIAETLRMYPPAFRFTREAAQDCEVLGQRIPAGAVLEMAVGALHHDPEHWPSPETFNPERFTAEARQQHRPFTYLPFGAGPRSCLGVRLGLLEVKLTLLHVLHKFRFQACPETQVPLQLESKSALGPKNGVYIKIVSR

COc1ccc(OC(C)(C)[C@H]2OC[C@@H](C/C=C\CCC(=O)O)[C@@H](c3cccnc3)O2)cc1 (relative stereo) [Example 1, 4(Z)-6[(2,4,5-cis)-2-(1-(4-methoxyphenoxy)-1-methylethyl)-4-(3-pyridyl)-1,3-dioxan-5-yl]-hexenoic acid]
Kb (thromboxane receptor): 300 nM | IC50 (TXA2 synthase): 40 nM
